Measured values: ChEMBL document CHEMBL5303711, “ECBD screening data for assay EOS300108” (2023)
Where a name gives a salt, the structure may show the parent alone. Active and inactive are the calls of the source. No rule for the calls is given here.

Assay: Cytotoxicity activity against human HepG2 cells assessed by CellTiter-Glo luminescent cell viability assay.
Type: toxicity, cell-based
Design: assay stage confirmatory assay, source tissue liver
Conditions: HepG2 cells, read-out: IC50 relative

| Structure (SMILES) | CC50 |
| --- | --- |
| C[C@@H]1CN(CC(=O)Nc2ccc3c(c2)Cc2cccc(-c4cc(=O)cc(N5CCOCC5)o4)c2S3)C[C@H](C)O1 | 17.8 µM (inactive) |
| O=C(Nc1nc2cc(C(F)(F)F)ccc2[nH]1)C1=COCCO1 | 7.1 µM (active) |
| CCCCOc1c(C(=O)c2c(F)cc(C)cc2F)c[nH]c2nncc1-2 | 50 µM (inactive) |
| Cc1ccc(O)c([C@H](CCN(C(C)C)C(C)C)c2ccccc2)c1 [TOLTERODINE TARTRATE] | 14.2 µM (active) |
| CN(C)CCCn1cc(C2=C(c3c[nH]c4ccccc34)C(=O)NC2=O)c2ccccc21 [GF-109203] | 4.8 µM (active) |
| Cc1ccc(C)c(C(=O)CN2C3=NCCCN3c3ccccc32)c1 | 9.6 µM (active) |
| CC[n+]1c(/C=C2/C=CN(C)c3ccccc32)ccc2ccccc21 | 2.3 µM (active) |
| CCOC(=O)c1cnc2ccc(-c3cncc(NS(=O)(=O)c4ccccc4)c3)cn12 | 3.8 µM (active) |
| Cc1cnc(Nc2ccc(OCCN3CCCC3)cc2)nc1Nc1cccc(S(=O)(=O)NC(C)(C)C)c1 [FEDRATINIB] | 1.1 µM (active) |
| C[C@H]1CNC(=O)c2cnn3ccc(nc23)N[C@H](C)c2cc(F)ccc2O1 [REPOTRECTINIB] | 3.7 µM (active) |
| CC(C)(C)c1nc(-c2cccc(NS(=O)(=O)c3c(F)cccc3F)c2F)c(-c2ccnc(N)n2)s1 [DABRAFENIB] | 3.1 µM (active) |
| COc1ccc(C[C@H]2NC[C@H](O)[C@H]2OC(C)=O)cc1 [ANISOMYCIN] | 0.3 µM (active) |
| O=C(NCCN1CCOCC1)C1CCN(c2nn3cc(-c4ccc(F)cc4)nc3s2)CC1 | 10.5 µM (active) |
| Cc1ccc(NC(=O)c2cccc(F)c2Cl)cc1O | 0.7 µM (active) |
| CC[C@]1(O)C[C@@H]2CN(CCc3c([nH]c4ccccc34)[C@@](C(=O)OC)(c3cc4c(cc3OC)N(C)[C@H]3[C@@](O)(C(=O)OC)[C@H](OC(C)=O)[C@]5(CC)C=CCN6CC[C@]43[C@@H]65)C2)C1 [VINBLASTINE SULFATE] | 4 µM (active) |
| Cc1cc(/C=C/C#N)cc(C)c1Nc1ccnc(Nc2ccc(C#N)cc2)n1 [RILPIVIRINE] | 11 µM (inactive) |
| N#Cc1c[nH]c(C(=O)Nc2cc(C(F)(F)F)ccn2)c1 | 12.3 µM (active) |
| CCCn1c(NC(=O)c2cccc(S(=O)(=O)N3CCN(C(C)=O)CC3)c2)nc2ccccc21 | 8.3 µM (active) |
| Cc1nc(CCN[C@@H](C)c2ccc(S(N)(=O)=O)cc2)cs1 | 2.7 µM (active) |
| Cn1c(NC(=O)c2cccc3cc[nH]c23)nc2ccccc21 | 2.3 µM (active) |
| CC(C)S(=O)(=O)N1CC(Oc2ccc(-c3noc(-c4ccncc4)n3)cc2)C1 | 19.7 µM (inactive) |

| Structure (SMILES) | CC50 |
| --- | --- |
| COc1cc(F)ccc1NC(=O)c1ccc(-c2ccccn2)[nH]c1=O | 11 µM (active) |
| N#Cc1ccc(Cn2cncc2CN2CCN(c3cccc(Cl)c3)C(=O)C2)cc1 [L-778123] | 1.1 µM (active) |
| CCN1CCN(C(c2ccc(C(F)(F)F)cc2)c2ccc3cccnc3c2O)CC1 (configuration not stated) | 4.1 µM (active) |
| Nc1nccc(-n2nnc3ccccc32)n1 | 8.7 µM (active) |
| O=C(CC1Sc2ncnn2C1=O)Nc1ccc(Br)cc1 (configuration not stated) | 15.3 µM (inactive) |
| Cc1cccc2cc(C(=O)Nc3ccc(N4CCN(C)CC4)cn3)oc12 | 12.6 µM (active) |
| COc1ccc(OC)c(S(=O)(=O)Nc2ccc3nc(S(C)(=O)=O)sc3c2)c1 | 6.9 µM (active) |
| c1ccc(Cn2c(-c3ccc(OC[C@H](C4CCNCC4)n4c(-c5ccccc5)nc5ccccc54)cc3)nc3ccccc32)cc1 | 1.6 µM (active) |
| O=S1(=O)C[C@H](NC2CCCC2)[C@@H](S(=O)(=O)c2ccc(Cl)cc2)C1 | 12.1 µM (active) |
| O=C(Nc1ccc(Cl)cc1)N1CCCN(Cc2ccc(F)cc2)C1 | 6.7 µM (active) |
| Cn1nccc1Nc1nccc(-c2ccn([C@H](CO)c3ccc(Cl)c(F)c3)c(=O)c2)n1 [RAVOXERTINIB] | 0.7 µM (active) |
| CC(C)=CCC[C@]1(C)C=Cc2c(O)c3c(c(CC=C(C)C)c2O1)O[C@]12C(=C[C@@H]4C[C@H]1C(C)(C)O[C@@]2(C/C=C(/C)C(=O)O)C4=O)C3=O | 0.7 µM (active) |
| COc1cc(NCc2ccc3nc(N)nc(N)c3c2C)cc(OC)c1OC [TRIMETREXATE] | 1.7 µM (active) |
| Cc1cc(N2CCN([C@@H](C)c3nc(C(C)(C)C)no3)CC2)nc(C(C)C)n1 | 11.9 µM (active) |
| CCCCc1nc(-c2ccc(OCCCN(CC)CC)cc2)cn1-c1ccc(Oc2ccc(Cl)cc2)cc1 [AZELIRAGON] | 1.2 µM (active) |
| CNc1nc(Nc2ccc(C(=O)N3CCOCC3)cc2OC)nc2[nH]cc(Cl)c12 | 5 µM (active) |
| Cc1ccc2ncc(C(=O)Nc3ccc(Cl)cc3O)c(=O)n2c1 | 1.4 µM (inactive) |
| Cc1cnc(NC(=O)Nc2cc(Br)c(C)cc2OC[C@@H]2CNCCO2)cn1 [RABUSERTIB] | 5.9 µM (active) |
| Cc1ccc(-c2cc3c(=O)n(CC#N)ccn3n2)cc1 | 0.3 µM (active) |
| CCc1ccc(-c2cc3c(=O)n(CC(=O)NCCN(CC)CC)ncn3n2)cc1 | 6.2 µM (active) |
| O=C(O)c1ccc2c(c1)nc(Nc1cccc(Cl)c1)c1ccncc12 | 5 µM (active) |

| Structure (SMILES) | CC50 |
| --- | --- |
| COc1cc2c(NC3CCN(C(C)C)CC3)nc(C3CCCCC3)nc2cc1OCCCN1CCCC1 | 2.4 µM (active) |
| CN1C(=O)Cc2cc(S(=O)(=O)Nc3cccc4cccnc34)ccc21 | 6.9 µM (active) |
| O=C(NCCCNc1nc(Nc2cccc(NC(=O)N3CCCC3)c2)ncc1I)c1cccs1 [BX-795] | 5.2 µM (active) |
| CC(C)(C)c1nccc(NC(=O)c2ccc(F)c(C#N)c2)n1 | 1.2 µM (active) |
| Cc1ccc(F)c(C(=O)N2CCC(Oc3ccncc3C)CC2)c1 | 11.2 µM (active) |
| O=c1[nH]ncc(NCc2ccc(OC[C@H]3CCCO3)cc2)c1Cl | 4.2 µM (inactive) |
| O=[N+]([O-])c1ccc(CN2CCOCCOCCN(Cc3ccc([N+](=O)[O-])cc3)CCOCC2)cc1 | 10.4 µM (active) |
| CCN(Cc1cc(Nc2nc(C)cn3c(-c4cn[nH]c4)cnc23)sn1)C(C)(C)CO | 1.8 µM (active) |
| CN(C)CCCN1c2ccccc2Sc2ccc(Cl)cc21 [CHLORPROMAZINE HYDROCHLORIDE] | 5.4 µM (active) |
| Cc1c(CNCCCN2CCCCC2CO)oc2ccccc12 (configuration not stated) | 9.8 µM (active) |
| CC1(C)C=Cc2c(ccc3c2OC[C@@H](c2ccc(O)cc2O)C3)O1 [GLABRIDIN] | 12.8 µM (active) |
| CCN(c1nc(N)c(C(=O)NC(=N)N)nc1Cl)C(C)C | 12.5 µM (active) |
| COc1cc2c(Nc3ccc(NC(=O)c4ccccc4)cc3)ncnc2cc1OCCCN1CCOCC1 | 3.2 µM (active) |
| Fc1ccc(C(c2ccc(F)cc2)N2CCN(C/C=C/c3ccccc3)CC2)cc1 [FLUNARIZINE HYDROCHLORIDE] | 14.6 µM (inactive) |
| CC(C)c1cnc(NC(=O)N2CC[C@H](Nc3ccc4nccn4n3)C2)s1 | 3.2 µM (active) |
| Cc1cccc(NC(=O)Nc2ccc3c(c2)N(S(C)(=O)=O)CC3)c1 | 3.3 µM (active) |
| Cc1cc(Br)cc(C)c1OCCCCN(C)C | 9.8 µM (active) |
| CN(C)[C@@H](CCOc1cccc2ccccc12)c1ccccc1 [DAPOXETINE HYDROCHLORIDE] | 6.3 µM (active) |
| O=C(c1cccc2cnccc12)N1CCc2c(nc(-c3ccccc3)[nH]c2=O)C1 | 1.5 µM (active) |
| COc1ccc(C(=O)N2CCN(Cc3noc(-c4ccc(F)cc4)n3)CC2)cc1 | 4.5 µM (active) |
